# Measured values from patent US20070207993A1, “Molybdenum carbonyl complexes for treating rheumatoid arthritis and other inflammatory diseases” (Alfama - Investigacao e Desenvolvimetno De Productos …, priority 2005, published 2007).
# Experiment: Spontaneous CO release from suspensions (gas chromatography, TCD)
# Format: physicochemical
# Settings: dark; for Equivalents of CO released, H2O pH = 2.13: suspension in H2O pH 2.13, 37° C.; for Equivalents of CO released, H2O pH = 8.3: suspension in H2O pH 8.3, 37° C.; for Equivalents of CO released, RPMI: suspension in RPMI with 10% FBS; for Equivalents of CO released, RPMI / CO equivalents (average ± standard deviation) / Equivalents of CO released, Olive oil: 37° C.; for CO equivalents (average ± standard deviation): suspension in RPMI, eight independent assays; for Equivalents of CO released, Olive oil: suspension in olive oil
# Experimental: CO detection was carried out by Gas Chromatography using a thermal conductivity detector (TCD) for the quantification of CO and CO2. The experiments were done under an initial atmosphere of reconstituted air, free of CO and CO2. […] […] Samples were withdrawn with gas-tight Hamilton syringes after homogenization of the head-space at given time intervals, preferably 2 hours, 4 hours and 6 hours. […] The volumes of CO released are usually in the range between 0.5-3 mL.
# As a possible result of the use of suspensions, the number of CO equivalents released in RPMI varied slightly. As an example of the possible variations, the average of eight independent assays done with suspensions of Compound I.1 is given in Table 2.
smiles,measurement,setting,value
O=[C][Mo]([Br])([C]=O)([C]=O)([C]=O)[C]=O [Compound I.1],"Equivalents of CO released, H2O pH = 2.13",2 hours,0.98 equivalents of CO
same,"Equivalents of CO released, H2O pH = 2.13",4 hours,1.00 equivalents of CO
same,"Equivalents of CO released, H2O pH = 2.13",6 hours,0.93 equivalents of CO
same,"Equivalents of CO released, H2O pH = 8.3",2 hours,1.24 equivalents of CO
same,"Equivalents of CO released, H2O pH = 8.3",4 hours,1.03 equivalents of CO
same,"Equivalents of CO released, H2O pH = 8.3",6 hours,0.98 equivalents of CO
same,"Equivalents of CO released, RPMI",2 hours,1.82 equivalents of CO
same,"Equivalents of CO released, RPMI",4 hours,2.16 equivalents of CO
same,"Equivalents of CO released, RPMI",6 hours,2.27 equivalents of CO
same,CO equivalents (average ± standard deviation),0.5 hours,0.64 ± 0.11 CO equivalents
same,CO equivalents (average ± standard deviation),1 hour,1.56 ± 0.13 CO equivalents
same,CO equivalents (average ± standard deviation),2 hours,1.82 ± 0.01 CO equivalents
same,CO equivalents (average ± standard deviation),3 hours,2.42 ± 0.38 CO equivalents
same,CO equivalents (average ± standard deviation),4 hours,2.16 ± 0.13 CO equivalents
same,CO equivalents (average ± standard deviation),5 hours,2.43 ± 0.39 CO equivalents
same,CO equivalents (average ± standard deviation),6 hours,2.27 ± 0.21 CO equivalents
same,CO equivalents (average ± standard deviation),7 hours,2.51 ± 0.00 CO equivalents
same,CO equivalents (average ± standard deviation),24 hours,2.40 ± 0.00 CO equivalents
same,"Equivalents of CO released, Olive oil",2 hours,0.08 equivalents of CO
same,"Equivalents of CO released, Olive oil",4 hours,0.25 equivalents of CO
same,"Equivalents of CO released, Olive oil",6 hours,0.53 equivalents of CO
